# Test results: patent US20220365085A1, “B[…], THE USE OF B[…], SENSORS […] WITH THE SAID B[…] AND THE DETECTION METHOD OF SARS-COV-2 VIRUS” (SENSDX SPÓLKA AKCYJNA, priority 2019, published 2022)
# Numbered stars: 1 amine (or outer) side, 2 acyl side, 3 side chain; on linkers, the order of the positions; unused ones are H or OH. Square brackets hold non-standard residues; d marks the D form. Peptide text beside a SMILES is read from it. * marks the point of attachment. ξ: configuration not given here. X1 = O=C([C@@H](N[*:1])c1cnc[nH]1)[*:2]; Ile(3ξ) = CCC(C)[C@H](N)C(=O)O; Lauroyl = CCCCCCCCCCCC(=O)*
# Tested on: SARS-CoV-2 virus
smiles,measurement,setting,value
"CCCCCCCCCCCC(=O)N[C@H](C(=O)N[C@H](C(=O)N[C@@H](CO)C(=O)N[C@@H](CC(N)=O)C(=O)N[C@@H](Cc1c[nH]cn1)C(=O)N[C@@H](CO)C(=O)N[C@@H](Cc1c[nH]cn1)C(=O)N[C@@H](Cc1c[nH]cn1)C(=O)N[C@@H](Cc1c[nH]cn1)C(=O)N[C@@H](CC(=O)O)C(=O)N[C@H](C(=O)N[C@@H](CC(C)C)C(N)=O)C(C)CC)C(C)CC)c1cnc[nH]1 (stereo partly drawn) [11-KOD1, 11-Mrcpt-HISNHSHHHDIL-NH2] (Lauroyl-[X1][Ile(3ξ)]SNHSHHHD[Ile(3ξ)]L-NH2)",result of the measurement on a negative swab (impedance changes on the sensor),,no impedance changes
same,result of the measurement on a positive swab (presence of the virus in the sample),"[…], MOBI SensDx reader, positive when Δ>10%",positive result (+)
